Data as given in patent US20250057963A1, “DISCOVERY OF PIPERLONGUMINE AS A NOVEL E3 LIGASE LIGAND” (University of Florida Research Foundation, Incorporated, priority 2021, published 2025).
“Also recorded” adds a separate entry of the source.

Key:
[1] = target: T1, CDK9 (Homo sapiens, UniProt P50750); experiment: CDK9 degradation and c-Myc/MCL-1 downregulation in LNCaP cells (immunoblot); format: cell-based; set-up: endogenous in cells; host or cells: MOLT4, 293T, K562, NCI-H1299, LNCaP
Experimental: Human T-ALL MOLT4 (Cat. No. CRL-1582), K562 (Cat. No. CCL-243), NCI-H1299 (Cat. No. CRL-5803), NCI-H2228 (Cat. No. CRL-5935), LNCaP (Cat. No. CRL-1740), 22RV1 (Cat. No. CRL-2505), PC3 (Cat. No. CRL-1435), DU145 (Cat. No. HTB-81), and epithelial kidney HEK 293T (293T, Cat. No. ACS-4500) cell lines were recently purchased from American Type Culture Collection (ATCC, Manassas, VA, USA). MOLT4, K562, NCI—H-1299, NCI-H2228, LNCap, and 22RV 1 cell lines were cultured in RPMI 1640 medium (Cat No. 22400-089, Thermo Fisher Scientific, Waltham, MA, USA) supplemented with 10% (v/v) heat-inactivated fetal bovine serum (FBS, Cat. No. S11150H, Atlanta Biologicals, Flowery Branch, GA, USA), 100 U/mL penicillin and 100 pig/mL streptomycin (Pen-Strep, Cat. No. 15140122, Thermo Fisher Scientific). PC3 cells were cultured in complete F—12K medium (Kaighn's modification of Ham's F-12 medium, Cat. No. 30-2004, ATCC) supplemented with 10% (v/v) heat-inactivated FBS, 100 U/mL penicillin, and 100 μg/mL streptomycin. DU145 cells were cultured in complete Eagle's Minimum Essential Medium (EMEM, Cat. No. 30-2003, ATCC) supplemented with 10% (v/v) heat-inactivated FBS, 100 U/mL penicillin, and 100 μg/mL streptomycin. […]
Immunoblot data were quantified using the ImageJ (v 1.53a) software from NIH. […]

[2] = system: PARP; experiment: PARP cleavage (apoptosis indicator) in MOLT4 cells; format: cell-based, Human; conditions: 6 h
Experimental: (§1) Cells were collected and lysed in RIPA lysis buffer (Cat. #BP-115DG, Boston Bio Products, Ashland, MA, USA) supplemented with protease and phosphatase inhibitor cocktails (Cat. #PPC1010, Sigma-Aldrich, St. Louis, MO, USA). Protein samples were made and immunoblotting was performed as described previously (Khan et al., 2019; Lv et al., 2021). Antibodies purchased from Cell Signaling Technologies (CST) and the dilutions are as follows: Biotin (Cat. No. 5571S, 1:1000), PARP (Cat. No. 9542S, 1:1000), c-Myc (Cat. No. 5605S, 1:1000), MCL1 (Cat. No. 5453S, 1:1000), and ALK (Cat. No. 3791S, 1:1000). KEAP1 antibody was purchased from Proteintech (Cat. No. 10503-2-AP, 1:1000). CDK9 antibody was purchased from Santa Cruz (Cat. No. sc-13130, 1:500). V5-tag antibody was purchased from Bethyl (Cat. No. A190-120P, 1:1000). j-actin antibody was purchased from MP Biomedicals (Cat. No. 8691001, 1:20 000).

[3] = target: T1, CDK9; experiment: 955-induced CDK9 degradation in H1299 cells after KEAP1, TRIP12 or TRAF6 knockdown/knockout and KEAP1 rescue; format: cell-based; set-up: endogenous in cells; host or cells: MOLT4, 293T, K562, NCI-H1299, LNCaP
Experimental: as §1
To knockout KEAP1, two lentiviral CRISPR knockout plasmids targeting human KEAP1 gene were purchased from Abm (Cat. No. 254911110595). Packaging 293T cells were transfected with KEAP1 single guide RNA (sgRNA) and helper vectors (pMD2.G and psPAX2; Addgene plasmid #12259 and 12260) using Lipofectamine 3000 reagent (Cat. No. L3000015, Thermal Fisher). Medium containing lentiviral particles and 8 µg/mL polybrene (Sigma-Aldrich) was used to infect H1299 cells. Infected cells were selected in medium containing […] puromycin. The sgRNA target sequences are as follows: sg1: […]; sg2: […]. Single clones were selected by serial dilution.
KEAP1-sg1 knockout H1299 (4×10^5) cells were transfected with or without plasmid expressing Halo-KEAP1 (Addgene, a gift from Yimon Aye, plasmid #58240) using Lipofectamine 3000 reagent (Cat. No. L3000015, Thermal Fisher). After 24 h, the cells in each well of 6-well plate were divided into two wells and cultured for additional 16 h.

T1 sequence (P50750 whole entry): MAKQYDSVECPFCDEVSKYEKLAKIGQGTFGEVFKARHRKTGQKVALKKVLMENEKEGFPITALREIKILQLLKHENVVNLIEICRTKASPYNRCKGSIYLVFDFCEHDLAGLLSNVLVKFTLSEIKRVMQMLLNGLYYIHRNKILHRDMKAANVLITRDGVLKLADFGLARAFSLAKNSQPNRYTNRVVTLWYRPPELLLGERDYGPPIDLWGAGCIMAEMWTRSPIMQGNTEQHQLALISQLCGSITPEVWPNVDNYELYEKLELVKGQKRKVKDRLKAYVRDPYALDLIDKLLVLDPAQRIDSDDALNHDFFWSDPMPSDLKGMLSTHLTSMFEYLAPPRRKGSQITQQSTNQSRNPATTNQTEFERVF

955-induced CDK9 degradation after KEAP1 knock down/out (siRNA, CRISPR-Cas9) ([3]; H1299 cells): blocked after depleting KEAP1
955-induced CDK9 degradation after TRIP12 or TRAF6 siRNA knockdown ([3]; H1299 cells, 6 h): had no effect
955-induced CDK9 degradation after ectopic Halo-tagged KEAP1 in KEAP1 stable knockout cells ([3]; KEAP1-sg1 knockout H1299 cells, 955 for 6 h): rescued CDK9 degradation
Structure (SMILES): COc1cc(/C=C/C(=O)N2CCC=CC2=O)cc(OC)c1OCCN1CCN(C(=O)CN2CCC(C(=O)Nc3ncc(SCc4ncc(C(C)(C)C)o4)s3)CC2)CC1 [compound 955, (E)-N-(5-(((5-(tert-butyl)oxazol-2-yl)methyl)thio)thiazol-2-yl)-1-(2-(4-(2-(2,6-dimethoxy-4-(3-oxo-3-(6-oxo-3,6-dihydropyridin-1(2H)-yl)prop-1-en-1-yl)phenoxy)ethyl)piperazin-1-yl)-2-oxoethyl)piperidine-4-carboxamide]
CDK9 degradation and downregulation of c-Myc and MCL-1 [1]: dose-dependent manner; also recorded: potently degraded CDK9 and downregulated c-Myc and MCL-1
induction of PARP cleavage / apoptotic cell death compared with SNS-032 [2]: more apoptotic cell death compared with SNS-032; also recorded: more potent in inducing PARP cleavage than SNS-032
